The values below come from patent publication US20040147595A1, “Biofilm degrading or sloughing compositions and methods” (priority 2001, published 2004).

In assay [1] the test system is OHHL induced LuxR dependent expression of GFP. In words: Quantitative furanone inhibition of the LuxR-PluxI-gfp(ASV) quorum sensor in E. coli MT102 (pJBA89). The class given is cell-based, Escherichia coli. Conditions: gradient of furanone concentration lowering RFU to 40% versus OHHL concentration (5-100 nM). An excerpt:
To analyse the AHL antagonist activity of the halogenated furanones we tested the compounds for their ability to inhibit 3oxo-C6-HSL (OHHL) induced LuxR dependent expression of green fluorescent protein (GFP) from a Pgfp(ASV) fusion in the AHL monitor strain E. coli MT102 harbouring pJBA89 (Andersen et al., 2001).
The medium used is minimal ABT containing 0.5% glucose and 0.5% Casamino Acids. In growing cultures of the AHL monitor strain E. coli Mt102 (pJBA89) encoding […] and a P-gfp(ASV) fusion, GFP(ASV) is produced immediately upon OHHL addition specifically from the LuxR controlled P-gfp(ASV) fusion gene. The sensitivity is high (responsive to as little as 3 nm OHHL) and due to the instability built into the GFP (ASV) variant there is no background production of green fluoroscence (Andersen et al., 2001). GFP expression from the AHL monitor strain E. coli MT102 (pJBA89) and the control strain MT102 harbouring the lacl^q, Plas-gfp(ASV) IPTG inducible expression system pMH197 was quantified in the following way. Overnight cultures were diluted four fold in fresh medium and incubated for one hour at 30° C. while OHHL and furanone compounds in the required concentrations were mixed in the wells of microtiter dishes. […] When absolute values were required, green fluoroscence was measured on a fluorometer (model RF-1501; Shimadzu, Tokyo, Japan) act at an excitation wavelength of 475 nm and emission detection at 515 nm. To establish a correlation between the colour code of the ARGUS-50 captured images and green fluorescence, both colour and relative fluorescence units (RFU), were determined for a dilution series of an E. coli MT102 (pJBA89) culture which had been incubated with […]. […]
From the second plot, the furanone concentration reducing the relative activity to 40% (ID60) is determined for each OHHL concentration. […]
To enable easy comparison of the strength of the furanones, an inhibition index (IIX40) is calculated for each furanone compound. […]

Another assay relates to bacterial growth. In words: Bacterial growth inhibition at the concentrations tested in the quorum sensor assay. Format: cell-based. From the text:
The natural compound 2 has an IIX40 0.75 where as compound 30 and […] have IIX40 of 0.01 and 0.51 respectively.

Assay [2] deals with OHHL induced LuxR dependent expression of GFP. Particulars: E. coli MT102 (pJBA89); cited from earlier work.
Assay [3] deals with V. fisheri lux quorum sensing system (LuxR). The assay can be described thus: V. fisheri luxR PluxI-gfp(ASV) reporter in PAO-JP2 biofilm. Format: cell-based, Pseudomonas aeruginosa. Particulars: 250 nM OHHL. The method, then: P. aeruginosa biofilms. Biofilms were grown at 30° C. in three-dimensional flow cells (Christensen et al., 1999) with individual channel dimensions of 0.3×4×40 mm supplied With ABt minimal medium supplemented with 2% LB. The flow system was assembled and prepared as described by Christensen et al. (1999). The substratum consisted of a microscope glass coverslip (Knittel 24×50 mm st1, Knittel Glaser, Braunschweig, Germany). Cultures for inoculation of the flow channels were prepared in the following way: P. aeruginosa strains were streaked on LB plates with the appropriate antibiotics and incubated for 24 h at 37° C. From each plate a single colony was used for inoculation of 10 ml ABt with 10% LB. The cultures were grown at, 30° C. for 18 h before they were diluted to an OD600 nm of 0.1 in sterile 0.9% NaCl and used for inoculation of the flow channels. Medium flow was kept at a constant rate of 3 mL/h, equivalent to a mean flow velocity of 0.7 mm/s, using a Watson-Marlow 205S peristaltic pump (Watson-Marlow, Falmouth, England). Biofilms were grown for 24 hours before being shifted to media containing AHL and furanone.
Scanning confocal laser microscopy (SCLM). Microscopic inspection and image acquisition were performed an a scanning confocal laser microscope (model TCS4D, Leica Lasertechnik GmbH, Heldelberg, Germany) equipped with a 63×/1.32-0.6 oil objective. The microscope was equipped with a motorized and programmable xy-stage, which was used for monitoring single colonies during the biofilm experiments. At the beginning of each online experiment, the microscope was programmed to track single randomly selected microcolonies; the sensitivity of photo multipliers and the laser intensity were adjusted and thereafter kept constant through out the duration of the experiments. Image scanning was carried out using the 488 nm and 568 nm lines of an Ar/Kr laser for detection of Gfp and Rfp, respectively. Visualization of captured images was performed using the IMARIS software package (Bitplane AG, Zúrich, Switzerland) running on a Silicon Graphics Indigo 2 workstation (Silicon Graphics, Mountain View, Calif. USA).
Repression of LuxR-activated quorum sensing controlled gene transcription. We speculated that the AHL-antagonstic properties of furanone 56 was specific to the P. aeruginosa las quorum sensing system. To test this, a previously published quorum sensing reporter based on the Vibro fisherf luxR gene and Pluxl-gfp(ASV) (Anderson at al, 2001; Wu et al, 2000) was transferred to PAO-JP2.

Consider `O=C1C=C(Br)/C(=C/Br)O1` [Compound 30], for which the “inhibition index (IIX40)” value in assay [1] is on record as 0.01 mole of furanone per mmole of. Moreover, the “concentration slightly above which growth was inhibited” value in the assay on bacterial growth is reported as “above 10 nm”.
Consider `CCCC(=O)CC(=O)N[C@H]1CCOC1=O` [OHHL, N-[3-oxo-hexanoyl]-L-homoserine lactone, reference compound], for which, in assay [2], the “lowest OHHL concentration the monitor strain responds to” value is 3 nm. Moreover, the “green fluorescence of biofilm” value in assay [3] was “developed within one hour”.
